Where a SMILES comes first, the peptide text is derived from it.
Experiments:
[1] = test system: non-cancerous fibroblasts; test: Subsequent experiments testing cancerous and non-cancerous cell lines; type: cell-based
[2] = test system: short term primary culture of human fibroblasts; test: Experiment 2 further experiment, cells viewed under phase contrast microscopy; type: cell-based; settings: for appearance of cells: 2.5 mM peptide, 2 days plus a further 7 days, FIG. 14; for cytotoxicity to cultured primary cultures of normal human cells: conclusion of Experiment 2
Method: In a further experiment, using a different batch of synthesized peptide, RT112 cells (a human bladder cancer cell line), HT29 cells (a human colon cancer cell line) and MGHU cells (a human bladder cancer cell line) were plated as described above. In parallel, a short term primary culture of human fibroblasts was plated in 48 well plates. After 24 h, the tissue culture medium was removed from each well and replaced with Hams F12 complete tissue culture medium (without foetal calf serum) supplemented with either 2.5 mM SEQ ID NO:1 or 2.5 mM SEQ ID NO:4. After culturing for 2 days, foetal calf serum was added to a concentration of 10%. The cells were then cultured for a further 7 days and viewed under phase contrast microscopy.
These peptides are not cytotoxic to cultured primary cultures of normal human cells.

HX34 cells = test: % viability by visual observation under phase contrast microscopy, 48 well, Experiment 2 first experiment; type: cell-based, human
Method: (§1) In a first experiment, MGHU-1 cells (a human bladder cancer cell line), were plated in 48 well tissue culture dishes in 0.2 ml complete Hams F12 tissue culture medium supplemented with 10% foetal calf serum. SKMEL-2 cells (a human malignant melanoma cell line), HX34 cells (a human malignant melanoma cell line) and H441 cells (a human lung cancer cell line) were plated under identical conditions. The cells were incubated at 37° C. in an atmosphere of 5% CO2.
(§2) After 24 h, the culture medium was then removed from each well and replaced by Hams F12 complete tissue culture medium (without foetal calf serum). The culture medium added to each well was supplemented with a peptide having the sequence set out in SEQ ID NO:1, SEQ ID NO:2 or SEQ ID NO:3 at a concentration of either 0.5, 1.0 or 5.0 mM in such a way that each cell line was exposed to each peptide at each concentration.
(§3) The cells were then cultured for two days. Foetal calf serum was then added to a final concentration of 10%, and the cells were left for a further 5 days. The % viability of the cells in each well was calculated by visual observation under phase contrast microscopy. The effect of the peptides having the amino acid sequences set out in SEQ ID NO:1 and SEQ ID NO:3 on the viability of the SK MeI-2, MGHU-1, HX34 and H441 cell lines is shown in FIG. 12. […] Where the concentration of SEQ ID NO:1 was 1.0 mM, 100% of MGHU-1 cells were killed. The viability of the other cell lines was not affected.

H441 cells = test: as above; type: cell-based, human
Method: as §1, §2, §3

MGHU-1 cells = test: as above; type: cell-based, human
Method: as §1, §2, §3

SKMEL-2 cells = test: as above; type: cell-based, human
Method: as §1, §2, §3

cancer cells = test: Experiments 3 and 4, 96 well plates, viability by phase contrast microscopy; type: cell-based; settings: summary statement
Method: (§4) Normal non-cancerous fibroblasts and cancer cells were exposed to the linear hexamer PRGPRP SEQ ID NO: 5 in 96 micro well plates using the same protocol as for SEQ. ID NO: 1 as previously described. The percent viability of the cells in each well was calculated by visual observation under phase contrast microscopy as previously described.
(§5) In order to define structure/function relationships different peptides were constructed SEQ ID NOS 5-16. Normal non-cancerous fibroblasts and cancer cells were exposed to 5 mM of these peptides in 96 well plates as previously described. The sequence of these peptides is listed below. Results were scored at 21 days.

[3] = test system: Normal non-cancerous fibroblasts; test: as above; type: cell-based
Method: as §4, §5

[4] = test system: normal non cancerous fibroblasts; test: Experiment 6, cell growth by daily phase-contrast microscopy, 96 well plates; type: cell-based
Method: (§6) Cancer cells and non-cancerous fibroblasts were separately seeded at 10^2 to 10^4 cells in 200 μl of Hams F12 tissue culture medium plus 10% fetal calf serum in 96 well plates and exposed to varying concentrations of a peptide having an amino acid sequence set out in SEQ ID NO: 17 ranging from 5.0 μM to 100 μM. Cell growth was studied by daily phase-contrast microscopy over 25 days.

[5] = test system: MGHU-1 bladder cancer cells; test: as above; type: cell-based, human
Method: as §6

[6] = visual observation of cell density and viability
[7] = any concentration (0.5, 1.0 or 5.0 mM), day 7

In the case of `CC(C)[C@H](NC(=O)[C@@H]1CCCN1C(=O)[C@H](CCCNC(=N)N)NC(=O)[C@@H]1CCCN1C(=O)CNC(=O)[C@H](CCCNC(=N)N)NC(=O)[C@@H]1CCCN1C(=O)[C@@H]1CCCN1C(=O)[C@@H](N)Cc1ccccc1)C(=O)N[C@@H](CCC(N)=O)C(=O)O` [SEQ ID NO:1] (H-FPPRGPRPVQ-OH; N-terminus and C-terminus assumed), the cell killing ([1]; between days 20 and 25) is reported as “specific killing of cancerous cells and not non-cancerous fibroblasts”, the cell killing ([1]; within the first seven days, cells then recovered) is reported as “non specific killing” and the appearance of cells [2] is reported as “appear to be healthy”. The “cytotoxicity to cultured primary cultures of normal human cells” value [2] was “not cytotoxic”.
`CC(C)[C@H](NC(=O)[C@@H]1CCCN1C(=O)[C@H](CCCNC(=N)N)NC(=O)[C@@H](NC(=O)CNC(=O)[C@H](CCCNC(=N)N)NC(=O)[C@@H]1CCCN1C(=O)[C@@H](NC(=O)[C@@H](N)Cc1ccccc1)[C@@H](C)O)[C@@H](C)O)C(=O)N[C@@H](CCC(N)=O)C(=O)O` [SEQ ID NO:2] (H-FTPRGTRPVQ-OH; N-terminus and C-terminus assumed) was tested, and the cytotoxicity (HX34 cells; [6]) was “cytotoxic”, the “cytotoxicity compared with SEQ ID NO:1” value (HX34 cells; [6]) was “less cytotoxic” and the cytotoxicity (H441 cells; [6]) was “cytotoxic”. The “cytotoxicity compared with SEQ ID NO:1” value (H441 cells; [6]) was “less cytotoxic”, the cytotoxicity (MGHU-1 cells; [6]) was “cytotoxic” and the “cytotoxicity compared with SEQ ID NO:1” value (MGHU-1 cells; [6]) was “less cytotoxic”. The cytotoxicity (SKMEL-2 cells; [6]) was “cytotoxic”, the “cytotoxicity compared with SEQ ID NO:1” value (SKMEL-2 cells; [6]) was “less cytotoxic” and the “cytotoxicity to cultured primary cultures of normal human cells” value [2] was “not cytotoxic”.
In the case of `CC(C)[C@H](NC(=O)[C@H](CCCNC(=N)N)NC(=O)[C@H](Cc1ccccc1)NC(=O)[C@@H]1CCCN1C(=O)CNC(=O)[C@@H]1CCCN1)C(=O)N1CCC[C@H]1C(=O)N[C@@H](CCC(N)=O)C(=O)N1CCC[C@H]1C(=O)N[C@@H](CCCNC(=N)N)C(=O)O` [SEQ ID NO:4, reference compound] (H-PGPFRVPQPR-OH), the appearance of cells [2] is reported as “appear to be healthy”.
In the case of `N=C(N)NCCC[C@H](NC(=O)[C@@H]1CCCN1)C(=O)NCC(=O)N1CCC[C@H]1C(=O)N[C@@H](CCCNC(=N)N)C(=O)N1CCC[C@H]1C(=O)O` [SEQ ID NO: 5, PRGPRP] (H-PRGPRP-OH), the “cytotoxicity to cancer cells tested” value (cancer cells) is reported as “cytotoxic”, the state of fibroblasts ([3]; 21 days and beyond) is reported as “remained healthy” and the “growth of non-cancerous cells tested” value ([3]; summary statement) is reported as “non-inhibitory”.
In the case of “ATTEGTETVQ [SEQ ID NO:3, reference compound]”, the viability (HX34 cells; [7]) is reported as “did not affect viability”, the viability (H441 cells; [7]) is reported as “did not affect viability” and the viability (MGHU-1 cells; [7]) is reported as “did not affect viability”. The viability (SKMEL-2 cells; [7]) was “did not affect viability”.
In the case of “cyclo-[PRGPRPVPRGPRPVPRGPRPV] (cyclic) [SEQ ID NO: 17]”, the stimulation of fibroblasts ([4]; 10 days exposure, 10 μM, FIG. 18) is reported as “marked non-cancerous fibroblast stimulation”, the stimulation of fibroblasts ([4]; between 5 and 10 days after exposure, 5.0 μM to 100 μM) is reported as “Marked stimulation” and the cell morphology ([5]; after 20 days exposure, FIG. 19) is reported as “marked loss of normal cell morphology”. For the same molecule, the “cell morphology of cancerous cells” value ([5]; no complete detachment of dead cells from the plastic surface) was “loss of clear cell morphology”.

Source: US8748389B2, “Treating cancer” (Theryte Limited, priority 2004, dated 2014)
